Source: patent US20100120778A1, “QUINOXALINE-BASED LXR MODULATORS” (Wyeth, priority 2008, published 2010)
Like-named read-outs stand apart in the source and are kept apart here.

Legend:
human LXRβ = target: T1, human LXRβ (Homo sapiens, UniProt P55055); test: Ligand-binding test procedure for human LXRβ (3H T0901317 tracer, flash plates); conditions: biotinylated hLXRβ, tracer 3H T0901317, +4° C. over night
T1 construct: biotin (biotinylated); made in house; host or cells: E. coli
T1 sequence (P55055 1-460): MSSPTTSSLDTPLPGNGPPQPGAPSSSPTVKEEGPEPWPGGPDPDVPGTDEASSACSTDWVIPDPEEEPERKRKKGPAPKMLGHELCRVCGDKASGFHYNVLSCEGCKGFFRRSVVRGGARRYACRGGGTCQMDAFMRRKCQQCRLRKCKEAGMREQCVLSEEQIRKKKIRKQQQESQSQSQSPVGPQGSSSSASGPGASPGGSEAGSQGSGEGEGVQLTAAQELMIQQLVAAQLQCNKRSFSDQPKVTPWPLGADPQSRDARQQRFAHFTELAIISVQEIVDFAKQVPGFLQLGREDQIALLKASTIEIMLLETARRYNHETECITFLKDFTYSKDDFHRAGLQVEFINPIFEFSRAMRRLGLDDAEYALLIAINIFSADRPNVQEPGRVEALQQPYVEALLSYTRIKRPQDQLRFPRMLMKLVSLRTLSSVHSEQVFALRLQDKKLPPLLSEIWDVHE

human LXRα = target: T2, human LXRα (Homo sapiens, UniProt Q13133); test: Ligand-binding test procedure for human LXRα (3H T0901317 tracer, flash plates); conditions: biotinylated hLXRα, tracer 3H T0901317, +4° C. over night
T2 construct: biotin (biotinylated); made in house; host or cells: E. coli
T2 sequence (Q13133 1-447): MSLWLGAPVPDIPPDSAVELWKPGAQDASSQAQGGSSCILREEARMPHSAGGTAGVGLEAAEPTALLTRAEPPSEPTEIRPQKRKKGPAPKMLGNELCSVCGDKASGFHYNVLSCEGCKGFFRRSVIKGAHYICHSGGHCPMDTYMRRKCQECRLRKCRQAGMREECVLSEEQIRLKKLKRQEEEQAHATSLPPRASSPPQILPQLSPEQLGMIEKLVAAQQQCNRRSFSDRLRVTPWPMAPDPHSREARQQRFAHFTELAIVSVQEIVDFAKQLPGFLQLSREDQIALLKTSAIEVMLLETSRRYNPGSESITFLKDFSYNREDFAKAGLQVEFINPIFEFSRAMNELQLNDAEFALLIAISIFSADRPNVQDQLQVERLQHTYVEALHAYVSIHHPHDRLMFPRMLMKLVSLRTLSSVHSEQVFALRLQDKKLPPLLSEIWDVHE
Experimental: II. Ligand-Binding Test Procedure for Human LXRα.
Receptor source: E. coli extract from cells expressing biotinylated hLXRα. Extract was made in a similar buffer as above, but with 50 mM TRIS.
Washed streptavidin and coated flash plates with wash buffer. Diluted receptor extract to give Bmax˜4000 cpm and add to the wells. Wrapped the plates in aluminum foil and stored them at +4° C. over night.
Made a dilution series in DMSO of the test ligands. Made a 5 nM solution of the radioactive tracer in buffer. Mixed 250 μl diluted tracer with 5 μl of the test ligand from each concentration of the dilution series. Washed the receptor-coated flash plates. Added 200 μl per well of the ligand/radiolabel mixture to the receptor-coated flash plates. Wrapped the plates in aluminum foil and incubate at +4° C. over night.
Aspirated wells, and wash the flashed plates. Sealed the plate. Measured the remaining radioactivity in the plate.

[1] = tested on: ABCA1 gene (regulation by LXR) in THP-1 cells; test: Quantitative analysis of ABCA1 gene regulation in THP-1 cells (real-time RT-PCR); assay type: cell-based, human; conditions: for Agonism ABCA1: LXR agonist reference at 1.0 uM as positive control; for EC50: Homo sapiens, read-out: EC50 ABCA1
Experimental: III. Quantitative Analysis of ABCA1 Gene Regulation In THP-1 Cells. The compounds of formula (I) effect on the regulation of the ABCA1 gene was evaluated using the following procedure. Materials and Methods Cell culture: The THP-1 monocytic cell line (ATCC # TIB-202) was obtained from American Type Culture Collection (Manassas, Va.) and cultured in RPMI 1640 medium (Gibco, Carlsbad, Calif.) containing 10% FBS, 2 mM L-glutamine, and 55 uM beta-Mercaptoethanol (BME). […] Louis, Mo.) for three days to induce differentiation into adherent macrophages. Differentiated THP-1 cells were treated with test compounds or ligands dissolved in DMSO (Sigma, D-8779) in culture medium lacking phorbal ester. […] Dose response effects were measured in duplicate, in the range of 0.001 to 30 micromolar concentrations and treated cells were incubated for an additional 18 hrs prior to RNA isolation. Unstimulated cells treated with vehicle were included as negative controls on each plate. […] L., J. Med. Chem. (2000), 45:1963-1966.). Results of antagonist analysis are expressed as % antagonism and IC50 (in μM). RNA isolation and quantitation: Total cellular RNA was isolated from treated cells cultured in 96-well plates using PrepStation 6100 (Applied Biosystems, Foster City, Calif.), according to the manufacturer's recommendations. RNA was resuspended in ribonuclease-free water and stored at -70° C. prior to analysis. RNA concentrations were quantitated with RiboGreen test procedure, #R-11490 (Molecular Probes, Eugene, Oreg.). Gene expression analysis: Gene-specific mRNA quantitation was performed by real-time PCR with the Perkin Elmer Corp. chemistry on an ABI Prism 7700 Sequence detection system (Applied Biosystems, Foster City, Calif.) according to the manufacturer's instructions. Samples (50-100 ng) of total RNA were assayed in duplicate or triplicate in 50 μl reactions using one-step RT-PCR and the standard curve method to estimate specific mRNA concentrations. Sequences of gene-specific primer and probe sets were designed with Primer Express Software (Applied Biosystems, Foster City, Calif.). The human ABCA1 primer and probe sequences are: forward, [NT], reverse, [NT], and probe, 6[…] and PCR reactions were performed according to PE Applied Biosystem's protocol for Taqman Gold RT-PCR or Qiagen's protocol for Quantitect probe RT-PCR. Relative levels of ABCA1 mRNA are normalized using GAPDH mRNA or 18S rRNA probe/primer sets purchased commercially (Applied Biosystems, Foster City, Calif.). Statistics: Mean, standard deviation and statistical significance of duplicate evaluations of RNA samples were assessed using ANOVA, one-way analysis of variance using SAS analysis.

[2] = Gene regulation by LXR (THP1), differentiated THP-1 cells, 18 hrs
[3] = Gene regulation by LXR (THP1), differentiated THP-1 cells, 18 hrs, ABCA1 mRNA

IC50 (human LXRβ) [nM] | EC50 [1, 3] [nM] | Compound | IC50 (human LXRα) [nM] | Agonism ABCA1 [1, 2] [%] | EC50 ([1]; THP-1, 18 h) [nM]
49 | 1090 | Cc1nc2c(C(F)(F)F)cccc2nc1-c1ccc(-c2cccc(S(C)(=O)=O)c2)cc1 [Example 1, 3-methyl-2-[3′-(methylsulfonyl)biphenyl-4-yl]-5-(trifluoromethyl)quinoxaline] | 752 | 79 | –
– | – | CCS(=O)(=O)c1cccc(-c2ccc(-c3nc4cccc(C(F)(F)F)c4nc3C)cc2)c1 [Example 31, 2-[3′-(ethylsulfonyl)biphenyl-4-yl]-3-methyl-5-(trifluoromethyl)quinoxaline] | 265 | 65 | 890
– | – | CNS(=O)(=O)c1cccc(-c2ccc(-c3nc4cccc(C(F)(F)F)c4nc3C)cc2)c1 [Example 53, N-methyl-4′-[3-methyl-5-(trifluoromethyl)quinoxalin-2-yl]biphenyl-3-sulfonamide] | > 1000 | 55 | 1400
128 | 4420 | Cc1nc2c(C(F)(F)F)cccc2nc1-c1cc(Oc2cccc(S(=O)(=O)CCCC#N)c2)ccc1Cl [Example 77, 4-[(3-{4-chloro-3-[3-methyl-5-(trifluoromethyl)quinoxalin-2-yl]phenoxy}phenyl)sulfonyl]-butanenitrile] | 405 | 45 | –
